In the CheMixHub viscosity set:

Assay: xn = mol fraction of the nth substance listed

CC(=O)N(C)C + CCCCO
viscosity [mPa·s]
Details	298.15 K	303.15 K	313.15 K
100 kPa, x1 = 0.0565	2.252	–	1.598
100 kPa, x1 = 0.1063	2.049	–	1.477
100 kPa, x1 = 0.2094	1.716	–	1.287
100 kPa, x1 = 0.3134	1.503	–	1.15
100 kPa, x1 = 0.4106	1.361	–	1.063
100 kPa, x1 = 0.5083	1.263	–	0.9979
100 kPa, x1 = 0.6042	1.179	–	0.9502
100 kPa, x1 = 0.7096	1.119	–	0.9082
100 kPa, x1 = 0.8046	1.061	–	0.8651
100 kPa, x1 = 0.9078	0.9922	–	0.8128
100 kPa, x1 = 0.9575	0.9601	–	0.7894
101 kPa, x1 = 0.0968	–	1.862	–
101 kPa, x1 = 0.1997	–	1.585	–
101 kPa, x1 = 0.2976	–	1.43	–
101 kPa, x1 = 0.4	–	1.281	–
101 kPa, x1 = 0.4956	–	1.181	–
101 kPa, x1 = 0.599	–	1.097	–
101 kPa, x1 = 0.6978	–	1.029	–
101 kPa, x1 = 0.7867	–	0.975	–
101 kPa, x1 = 0.9006	–	0.917	–

CCCCCCCCCO + CCCCO
viscosity [mPa·s]
Details	293.15 K	298.15 K	308.15 K	318.15 K
101 kPa, x2 = 0.05	–	8.644	6.182	4.486
101 kPa, x2 = 0.1	–	8.219	5.878	4.303
101 kPa, x2 = 0.15	–	7.816	5.598	4.121
101 kPa, x2 = 0.2	–	7.431	5.336	3.941
101 kPa, x2 = 0.25	–	7.062	5.089	3.764
101 kPa, x2 = 0.3	–	6.704	4.852	3.589
101 kPa, x2 = 0.35	–	6.356	4.623	3.418
101 kPa, x2 = 0.4	–	6.016	4.398	3.251
101 kPa, x2 = 0.45	–	5.681	4.177	3.088
101 kPa, x2 = 0.5	–	5.353	3.957	2.929
101 kPa, x2 = 0.55	–	5.029	3.738	2.774
101 kPa, x2 = 0.6	–	4.71	3.52	2.623
101 kPa, x2 = 0.65	–	4.397	3.303	2.477
101 kPa, x2 = 0.7	–	4.091	3.088	2.335
101 kPa, x2 = 0.75	–	3.793	2.877	2.198
101 kPa, x2 = 0.8	–	3.506	2.672	2.064
101 kPa, x2 = 0.85	–	3.234	2.476	1.933
101 kPa, x2 = 0.9	–	2.977	2.292	1.806
101 kPa, x2 = 0.95	–	2.742	2.125	1.681
101.33 kPa, x2 = 0.1608	9.868	–	–	–
101.33 kPa, x2 = 0.2186	–	7.719	–	–
101.33 kPa, x2 = 0.3832	7.621	–	–	–
101.33 kPa, x2 = 0.4166	–	6.168	–	–
101.33 kPa, x2 = 0.5129	–	5.48	–	–
101.33 kPa, x2 = 0.5372	6.237	–	–	–
101.33 kPa, x2 = 0.6368	–	4.634	–	–
101.33 kPa, x2 = 0.6674	5.169	–	–	–
101.33 kPa, x2 = 0.7995	4.296	–	–	–
101.33 kPa, x2 = 0.8253	–	3.486	–	–
101.33 kPa, x2 = 0.8991	3.529	–	–	–
101.33 kPa, x2 = 0.9103	–	3.019	–	–

CC(=O)N(C)C + CCCCn1cc[n+](C)c1.F[B-](F)(F)F
101.33 kPa
Details	viscosity [mPa·s]
293.15 K, x2 = 0.8488	74.2
293.15 K, x2 = 0.9175	95.64
298.15 K, x2 = 0.9175	80.5
308.15 K, x2 = 0.437	7.88
323.15 K, x2 = 0.7419	9.78

CC(=O)N(C)C + CCCO
viscosity [mPa·s]
Details	298.15 K	303.15 K	313.15 K
100 kPa, x1 = 0.0535	1.767	–	1.29
100 kPa, x1 = 0.1052	1.618	–	1.206
100 kPa, x1 = 0.2053	1.423	–	1.093
100 kPa, x1 = 0.3066	1.285	–	1.008
100 kPa, x1 = 0.407	1.197	–	0.948
100 kPa, x1 = 0.5061	1.143	–	0.904
100 kPa, x1 = 0.5984	1.097	–	0.8744
100 kPa, x1 = 0.701	1.045	–	0.8402
100 kPa, x1 = 0.8014	0.9977	–	0.8138
100 kPa, x1 = 0.9025	0.9648	–	0.7886
100 kPa, x1 = 0.9583	0.944	–	0.7749
101 kPa, x1 = 0.0966	–	1.47	–
101 kPa, x1 = 0.1975	–	1.293	–
101 kPa, x1 = 0.2992	–	1.193	–
101 kPa, x1 = 0.3986	–	1.103	–
101 kPa, x1 = 0.4894	–	1.048	–
101 kPa, x1 = 0.6025	–	1	–
101 kPa, x1 = 0.697	–	0.963	–
101 kPa, x1 = 0.7955	–	0.93	–
101 kPa, x1 = 0.9012	–	0.898	–

CC(=O)N1CCOCC1 + CCCO
viscosity [mPa·s], 101 kPa
Details	293.15 K	303.15 K	313.15 K	323.15 K
x1 = 0.0542	3.211	2.607	2.089	1.678
x1 = 0.1279	4.268	3.591	2.958	2.472
x1 = 0.2156	5.382	4.614	3.842	3.268
x1 = 0.2811	6.079	5.246	4.369	3.728
x1 = 0.3166	6.397	5.529	4.598	3.925
x1 = 0.3902	6.922	5.978	4.928	4.183
x1 = 0.4533	7.294	6.294	5.142	4.331
x1 = 0.5022	7.478	6.414	5.189	4.331
x1 = 0.5437	7.679	6.578	5.289	4.388
x1 = 0.5983	7.857	6.703	5.329	4.375
x1 = 0.6341	7.889	6.699	5.267	4.277
x1 = 0.6883	8.018	6.776	5.259	4.214
x1 = 0.7442	8.069	6.769	5.161	4.062
x1 = 0.7912	8.099	6.748	5.069	3.922
x1 = 0.8542	8.178	6.766	4.986	3.776
x1 = 0.9165	8.328	6.851	4.972	3.702
x1 = 0.9776	8.508	7.001	5.093	3.823
